For one data set, the target named is PDE4B1 (Homo sapiens (Human), UniProt Q07343). Nature of the data set: Effect of compounds on PDE4B1 activity (IMAP fluorescence polarization kit). The data set is classed as biochemical. As to the method: The effect of compounds on PDE4B1 activity was detected using a fluorescence polarization kit (IMAP FP IPP Explorer KIT, Molecular Device, Cat #R8124). The IMAP Reaction Buffer containing 0.1% BSA (5×) in the kit was diluted into a 1-fold reaction buffer containing 1 mM DTT. 0.12 nM PDE4B1 (BPS, Cat #60041) was added to the 1-fold reaction buffer to form a 2-fold enzyme solution. 10 μL of the 2-fold enzyme solution was added to wells of a 384-well reaction plate. For the negative control well, 10 μL of the 1-fold reaction buffer was used instead of the enzyme solution. Centrifugation at 1000 rpm for 1 minute and incubation at room temperature for 15 minutes were carried out. 0.2 uM FAM-labeled cAMP (FAM-cAMP, Molecular Device, Cat #R7506) was added to the 1-fold reaction buffer to form a 2-fold substrate solution. 10 μL of the 2-fold substrate solution was added to each well of the 384-well reaction plate. Centrifugation at 1000 rpm for 1 minute was carried out. A reaction was carried out at room temperature for 20 minutes. IMAP Progressive Binding Buffer A (5×), IMAP Progressive Binding Buffer B (5×), and IMAP Progressive Binding Reagent (provided by IMAP FP IPP Explorer Kit) were prepared into a reaction stop solution according to the instructions for use. 60 μL of an […] reaction stop solution was added to each well of the 384-well reaction plate to stop the reaction, and the reaction product was centrifuged at 1000 rpm for 1 minute. Incubation at room temperature in the dark for 60 minutes was carried out. The mP values (Ex480/Em535 (s), Em535 (p)) were read by a microplate reader (Envision).
PDE4B1, sequence (Q07343 whole entry): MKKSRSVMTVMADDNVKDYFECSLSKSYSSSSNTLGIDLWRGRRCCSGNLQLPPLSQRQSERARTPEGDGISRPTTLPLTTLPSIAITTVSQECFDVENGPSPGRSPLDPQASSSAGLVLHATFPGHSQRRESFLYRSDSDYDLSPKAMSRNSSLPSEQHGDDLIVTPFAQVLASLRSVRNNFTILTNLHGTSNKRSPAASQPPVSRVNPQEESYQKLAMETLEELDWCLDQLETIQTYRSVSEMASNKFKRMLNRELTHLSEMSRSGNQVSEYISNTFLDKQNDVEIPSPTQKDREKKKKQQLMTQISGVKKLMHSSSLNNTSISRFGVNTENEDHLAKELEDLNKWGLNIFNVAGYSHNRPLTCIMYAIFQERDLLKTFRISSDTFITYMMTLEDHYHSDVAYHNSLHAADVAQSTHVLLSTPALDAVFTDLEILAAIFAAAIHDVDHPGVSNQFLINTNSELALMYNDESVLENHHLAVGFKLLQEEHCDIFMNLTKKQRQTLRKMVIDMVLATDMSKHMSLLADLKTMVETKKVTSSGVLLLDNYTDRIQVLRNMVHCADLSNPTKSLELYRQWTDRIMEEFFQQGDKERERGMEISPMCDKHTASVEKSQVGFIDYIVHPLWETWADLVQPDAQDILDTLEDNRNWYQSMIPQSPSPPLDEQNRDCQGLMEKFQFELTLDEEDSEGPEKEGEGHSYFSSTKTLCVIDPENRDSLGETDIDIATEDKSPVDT
FP was usually represented by mP value. mP value for FP measurement=1000*(S−G*P)/(S+G*P) • S: fluorescence intensity in parallel direction • P: fluorescence intensity in perpendicular direction • G: G factor=1
[formula] • mP(sample): mP of the test compound in a reaction well • mP(negative control): mP in the negative control well • mP(positive control): mP in the positive control well
According to the calculated inhibition rate at each concentration, the IC50 value of each compound was calculated by XLFit excel add-in version 5.4.0.8 software.

The target of another data set is PDE4D2 (Homo sapiens (Human), UniProt Q08499). Nature of the data set: Effect of compounds on PDE4D2 activity (fluorescence polarization kit). Type of data set: biochemical.
PDE4D2, sequence (Q08499 303-809, change not shown): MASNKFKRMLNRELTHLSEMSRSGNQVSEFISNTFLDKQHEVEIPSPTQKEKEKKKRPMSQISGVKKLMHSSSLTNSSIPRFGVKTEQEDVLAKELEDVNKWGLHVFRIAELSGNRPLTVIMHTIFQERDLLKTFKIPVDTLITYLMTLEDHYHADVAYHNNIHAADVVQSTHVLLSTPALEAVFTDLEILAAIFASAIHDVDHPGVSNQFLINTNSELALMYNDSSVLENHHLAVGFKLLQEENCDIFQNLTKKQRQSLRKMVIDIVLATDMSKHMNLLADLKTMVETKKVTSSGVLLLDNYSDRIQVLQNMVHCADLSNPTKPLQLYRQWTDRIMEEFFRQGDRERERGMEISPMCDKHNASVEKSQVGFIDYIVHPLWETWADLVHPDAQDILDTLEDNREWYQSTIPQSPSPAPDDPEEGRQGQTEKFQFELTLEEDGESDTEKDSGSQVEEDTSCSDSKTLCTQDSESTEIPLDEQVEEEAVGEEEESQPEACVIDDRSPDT
The target in the next data set is PDE4B2 (Homo sapiens (Human), UniProt Q07343). Nature of the data set: Effect of compounds on PDE4B2 activity (fluorescence polarization kit). Background: In fluorescence polarisation assays a small probe gives low polarisation when free and higher when bound to something large.
PDE4B2, sequence (Q07343 other isoform, or with tags, fused parts or gaps): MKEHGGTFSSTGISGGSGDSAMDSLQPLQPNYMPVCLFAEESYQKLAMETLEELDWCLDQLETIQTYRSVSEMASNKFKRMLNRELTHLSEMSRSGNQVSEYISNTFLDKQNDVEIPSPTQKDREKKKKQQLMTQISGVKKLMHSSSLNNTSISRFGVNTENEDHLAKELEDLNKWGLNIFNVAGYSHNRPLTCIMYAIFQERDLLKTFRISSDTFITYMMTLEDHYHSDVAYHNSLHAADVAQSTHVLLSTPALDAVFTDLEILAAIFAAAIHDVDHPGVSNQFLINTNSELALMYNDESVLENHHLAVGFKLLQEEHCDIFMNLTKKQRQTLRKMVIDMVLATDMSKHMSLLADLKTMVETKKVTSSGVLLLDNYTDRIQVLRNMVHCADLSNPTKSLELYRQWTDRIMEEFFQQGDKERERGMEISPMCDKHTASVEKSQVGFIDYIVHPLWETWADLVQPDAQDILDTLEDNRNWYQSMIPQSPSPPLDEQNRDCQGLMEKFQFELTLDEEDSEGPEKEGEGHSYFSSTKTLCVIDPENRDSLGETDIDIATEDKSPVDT
Data set [1] has as its system human peripheral blood mononuclear cells (TNF-α release). Nature of the data set: Inhibition of LPS-induced TNF-α release from human peripheral blood mononuclear cells in vitro. Type of data set: cell-based. Particulars: 4 h; for IC50: read-out: Re IC50.
Data set [2] in a line: Pharmacokinetic test in rats. Particulars: male, SD. The data set is classed as in vivo. As to the method: 7.1 Experimental animals: Male SD rats, about 220 g, 6-8 weeks old, 6 rats/compound, purchased from Chengdu Ddossy Experimental Animals Co., Ltd.
7.2 Experiment design: On the day of the experiment, 6 SD rats were randomly grouped according to their body weights. The animals were fasted with water available for 12 to 14 h one day before the administration and were fed 4 h after the administration.

Like-named read-outs stand apart in the source and are kept apart here.

Experimental for PDE4B2: [formula] • I∥ (S535): fluorescence intensity in parallel direction • I⊥ (P535): fluorescence intensity in perpendicular direction • G: G factor=1
According to the calculated inhibition rate at each concentration, the IC50 value of each compound was calculated by GraphPad Prism 8 software.

Regarding `[O-][S+]1CCCc2nc(N3CCC(c4ncc(Cl)cn4)CC3)nc(NC3(CO)CCC3)c21` (stereo not drawn) [Compound 3], the figures for the IC50 on PDE4B1, against PDE4D2 and on PDE4B2 (read-out: PDE4B2 IC50) were less than 10 nM, less than 10 nM and 10 to 50 nM, respectively.
As to `[O-][S@@+]1CCCc2nc(N3CC=C(c4ccc(Cl)cc4)CC3)nc(NC3(CO)CCC3)c21` [Compound 8-2], the IC50 against PDE4B1 and against PDE4D2 was less than 10 nM throughout.
As to `[O-][S@@+]1CCCc2nc(N3CC=C(c4ncc(Cl)cn4)CC3)nc(NC3(CO)CCC3)c21` [Compound 9-2], the IC50 against PDE4B1 is less than 10 nM; at PDE4D2, less than 10 nM; in data set [1] (relative IC50, hPBMC, 100 ng/mL LPS), 10 to 50 nM. The “Max inhibition (%)” value in data set [1] (hPBMC, 100 ng/mL LPS) turned out to be 69.47%.
Consider `[O-][S@+]1CCCc2nc(N3CCC(c4ccc(Cl)cc4)CC3)nc(NC3(CO)CCC3)c21` [Compound 10-2], for which the IC50 on PDE4B1 lay within 10 to 50 nM.
Take `[O-][S@@+]1CCCc2nc(N3CCN(c4ccc(Cl)cc4)CC3)nc(NC3(CO)CCC3)c21` [Compound 11-1]: the IC50 at PDE4B1 is less than 10 nM; against PDE4D2, 10 to 50 nM.
On to `CC(C)(COC(N)=O)Nc1nc(N2CC=C(c3ncc(C4CC4)cn3)CC2)nc2c1[S@+]([O-])CC2` [Compound 84], for which the IC50 at PDE4D2 is less than 10 nM; in data set [1] (Homo sapiens, PBMC) it was less than 10 nM; on PDE4B2, less than 10 nM. Moreover, in data set [1] (Homo sapiens, PBMC, hPBMC, 100 ng/mL LPS, read-out: Max inhibition (%)), the Emax was 68%. In addition, the AUC(0-t) in data set [2] (iv, rat plasma, i.v. 2.5 mg/kg) turned out to be 16500 ng·h/mL; in data set [2] (po, rat plasma, i.g. 10 mg/kg), 52200 ng·h/mL. This molecule also came in with a clearance in data set [2] (iv, rat plasma, i.v. 2.5 mg/kg) of 2.54 ± 0.32 mL/min/kg. Besides, the Vd in data set [2] (iv, rat plasma, i.v. 2.5 mg/kg, read-out: Vdss) came out at 0.324 ± 0.012 L/kg. Besides, the bioavailability in data set [2] (plasma, po, rat, i.g. 10 mg/kg) is 78.9 ± 32%.

Usually IC50 stands for the concentration that inhibits the measured activity by half. Usually AUC(0-t) stands for exposure summed from dosing to a finite time, without extrapolation to infinity. Low readings indicate low exposure, high ones high exposure. Usually clearance stands for the rate of elimination divided by the concentration. Low values mean a low capacity for elimination, high ones a high capacity for elimination. One may read the bioavailability as the share of a dose that reaches the circulation, judged against a reference dose that is usually intravenous. A lower bioavailability goes with poor availability.

The values above are taken from patent US20250263426A1, “PDE4B INHIBITOR AND USE THEREOF” (Xizang Haisco Pharmaceutical Co., Ltd., priority 2022, published 2025).
